Data on 17 molecules can be found in patent US8791131B2, “Imidazo[1,5]naphthyridine compounds, their pharmaceutical use and compositions” (Pfizer Inc., priority 2008, dated 2014).

The test system of test [1] is PI3-K (phosphorylation of AKT at serine 473) in BT20 cells. Briefly: PI3-Kα cellular assay (phospho-AKT Ser473 ELISA in BT20 cells).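 Also: lysates read by ELISA with TMB colour at 450 nm, cells given 0.5% DMSO vehicle serve as positive control and cell-free wells as negative control, duplicate wells per concentration.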 As to conditions: Homo sapiens, BT-20, 1 h.
For test [2], the target named is mTOR (Homo sapiens (Human), UniProt P42345).
Test [3] addresses PI3-Kα (Mus musculus (Mouse), UniProt P42337). The test is described as follows: PI3-Kα biochemical assay (in vitro kinase assay, fluorescence polarization).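 Also: Insect-cell-expressed mouse p110/p85 complex converting PI(4,5)P2, product PI(3,4,5)P3 detected by displacing TAMRA-tagged PI(3,4,5)P3 from Grip1 PH domain, lower polarization means more product, room temperature.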 The note with it: Ki calculated from IC50, [ATP]=30 uM, Km=25 uM.
Where [4] appears, read: read-out: S473 pAKT 10% FBS IC50 (μM).
The mark [5] stands for this setting: read-out: S473 pAKT 0.5% FBS IC50 (μM).

Read-outs that look alike come from different tables or passages of the source.

mTOR, sequence (P42345 2156-2469): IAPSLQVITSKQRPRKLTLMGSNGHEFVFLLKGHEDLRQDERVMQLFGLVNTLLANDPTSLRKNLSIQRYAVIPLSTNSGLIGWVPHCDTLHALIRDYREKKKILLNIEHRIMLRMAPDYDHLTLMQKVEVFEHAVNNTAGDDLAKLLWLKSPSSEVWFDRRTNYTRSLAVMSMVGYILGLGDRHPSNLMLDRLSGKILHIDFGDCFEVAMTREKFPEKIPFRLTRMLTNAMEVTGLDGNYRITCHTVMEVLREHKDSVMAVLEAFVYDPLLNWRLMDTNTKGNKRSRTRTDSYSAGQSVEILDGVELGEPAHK
PI3-Kα, sequence (P42337 whole entry, the tested form may be a part): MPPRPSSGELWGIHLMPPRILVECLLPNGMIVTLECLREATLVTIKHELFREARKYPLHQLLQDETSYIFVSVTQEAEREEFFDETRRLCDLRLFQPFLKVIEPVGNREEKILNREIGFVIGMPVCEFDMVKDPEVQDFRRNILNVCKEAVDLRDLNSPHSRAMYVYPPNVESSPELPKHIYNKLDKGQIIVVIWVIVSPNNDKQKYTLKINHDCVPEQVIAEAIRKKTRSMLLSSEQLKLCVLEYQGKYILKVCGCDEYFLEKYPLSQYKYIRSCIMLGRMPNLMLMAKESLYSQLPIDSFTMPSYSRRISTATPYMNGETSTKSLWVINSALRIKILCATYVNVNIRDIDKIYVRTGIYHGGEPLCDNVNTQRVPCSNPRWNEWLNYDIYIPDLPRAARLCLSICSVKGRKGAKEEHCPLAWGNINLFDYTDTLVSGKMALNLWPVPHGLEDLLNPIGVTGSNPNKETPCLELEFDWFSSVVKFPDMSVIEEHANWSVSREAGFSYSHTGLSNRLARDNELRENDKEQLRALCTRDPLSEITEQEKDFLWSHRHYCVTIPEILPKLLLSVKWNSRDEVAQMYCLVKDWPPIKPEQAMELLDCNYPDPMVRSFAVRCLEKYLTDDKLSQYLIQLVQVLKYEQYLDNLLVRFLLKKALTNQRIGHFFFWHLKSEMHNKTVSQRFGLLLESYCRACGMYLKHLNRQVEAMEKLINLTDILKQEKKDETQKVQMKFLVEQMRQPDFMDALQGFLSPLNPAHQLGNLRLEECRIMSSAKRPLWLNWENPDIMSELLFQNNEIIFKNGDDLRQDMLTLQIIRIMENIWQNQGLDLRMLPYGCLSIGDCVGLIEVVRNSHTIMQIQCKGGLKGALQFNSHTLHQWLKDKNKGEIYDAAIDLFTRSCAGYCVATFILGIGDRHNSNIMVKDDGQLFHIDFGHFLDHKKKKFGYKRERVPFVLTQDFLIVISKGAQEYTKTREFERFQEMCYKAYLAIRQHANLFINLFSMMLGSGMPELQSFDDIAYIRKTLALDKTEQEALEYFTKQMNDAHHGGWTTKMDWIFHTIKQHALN
PI3-Kα, sequence (P26450 whole entry partner, the tested form may be a part): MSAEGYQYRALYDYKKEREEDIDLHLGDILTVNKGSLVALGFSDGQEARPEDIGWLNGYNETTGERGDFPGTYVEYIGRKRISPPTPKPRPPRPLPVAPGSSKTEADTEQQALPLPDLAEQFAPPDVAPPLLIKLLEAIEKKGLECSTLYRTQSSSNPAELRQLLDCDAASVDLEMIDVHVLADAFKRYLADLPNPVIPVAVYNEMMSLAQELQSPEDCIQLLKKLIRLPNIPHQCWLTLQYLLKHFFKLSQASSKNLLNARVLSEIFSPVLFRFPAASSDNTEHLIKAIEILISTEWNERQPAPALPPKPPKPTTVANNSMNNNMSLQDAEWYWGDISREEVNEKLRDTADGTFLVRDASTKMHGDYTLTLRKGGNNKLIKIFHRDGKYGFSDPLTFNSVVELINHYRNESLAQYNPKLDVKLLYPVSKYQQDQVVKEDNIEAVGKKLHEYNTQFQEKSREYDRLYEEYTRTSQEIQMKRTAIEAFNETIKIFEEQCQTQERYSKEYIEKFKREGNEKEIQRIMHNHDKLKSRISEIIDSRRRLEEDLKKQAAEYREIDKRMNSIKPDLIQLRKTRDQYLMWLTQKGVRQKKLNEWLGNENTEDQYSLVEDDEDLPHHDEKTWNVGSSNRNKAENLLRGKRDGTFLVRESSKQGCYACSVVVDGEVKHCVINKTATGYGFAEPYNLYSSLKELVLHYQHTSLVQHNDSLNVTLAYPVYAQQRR

For the molecule `Cn1c(=O)n([C@H]2CC[C@H](O)CC2)c2c3nc(-c4cnc(N)nc4)ccc3ncc21` [Compound 229, 8-(2-aminopyrimidin-5-yl)-1-(trans-4-hydroxycyclohexyl)-3-methyl-1,3-dihydro-2H-imidazo[4,5-c][1,5]naphthyridin-2-one], in test [1] (setting [4]), the IC50 (commonly the concentration that gives 50% inhibition) worked out at 0.00336 µM. Affinity in test [2] was put at a Ki of 0.33 nM. Also, in test [3], the “PI3Ka Ki” value is 0.273 nM.
The corresponding values for `CN(C)c1ccc(-c2ccc3ncc4c(c3n2)n(C2CCNCC2)c(=O)n4C)cn1` [Compound 191, 8-[6-(dimethylamino)pyridin-3-yl]-3-methyl-1-piperidin-4-yl-1,3-dihydro-2H-imidazo[4,5-c][1,5]naphthyridin-2-one] are 0.0246 µM, 8.41 nM and 0.5 nM.
Regarding `CN(C)c1ccc(-c2ccc3ncc4c(c3n2)n(C2CCN(C(=O)C(C)(C)C)CC2)c(=O)n4C)cn1` [Compound 205, 8-[6-(dimethylamino)pyridin-3-yl]-1-[1-(2,2-dimethylpropanoyl)piperidin-4-yl]-3-methyl-1,3-dihydro-2H-imidazo[4,5-c][1,5]naphthyridin-2-one], in test [1] (setting [4]), the IC50 turned out to be 0.0214 µM. For the same molecule, the Ki (usually a measure of affinity in units of concentration, obtained from inhibition or displacement) in test [2] is 4.38 nM. In addition, the “PI3Ka Ki” value in test [3] is 0.281 nM.
The corresponding values for `Cn1cc(-c2ccc3ncc4c(c3n2)n(C2CCOCC2)c(=O)n4C)cn1` [Compound 203, 3-methyl-8-(1-methyl-1H-pyrazol-4-yl)-1-(tetrahydro-2H-pyran-4-yl)-1,3-dihydro-2H-imidazo[4,5-c][1,5]naphthyridin-2-one] are 0.0718 µM, 72.3 nM and 5.17 nM.
On to `C[C@@H](O)C(=O)N1CCC(n2c(=O)n(C)c3cnc4ccc(-c5ccc(N(C)C)nc5)nc4c32)CC1` [Compound 214, 8-[6-(dimethylamino)pyridin-3-yl]-1-{1-[(2R)-2-hydroxypropanoyl]piperidin-4-yl}-3-methyl-1,3-dihydro-2H-imidazo[4,5-c][1,5]naphthyridin-2-one], for which the IC50 in test [1] (setting [4]) was determined as 0.00553 µM. For the same molecule, the affinity in test [2], expressed as Ki, was 1.74 nM. In addition, in test [3], the “PI3Ka Ki” value was 0.397 nM.
For the molecule `Cc1ccc(-c2ccc3ncc4c(c3n2)n(C2CCN(C)CC2)c(=O)n4C)cn1` [Compound 171, 3-methyl-1-(1-methylpiperidin-4-yl)-8-(6-methylpyridin-3-yl)-1,3-dihydro-2H-imidazo[4,5-c][1,5]naphthyridin-2-one], the IC50 in test [1] (setting [4]) was found to be 0.0228 µM. In addition, the Ki in test [2] amounted to 40.1 nM. Besides, in test [3], the “PI3Ka Ki” value was 4.26 nM.
In the same order, the values of `COc1ncc(-c2ccc3ncc4c(c3n2)n(C2CCN(C(=O)CN)CC2)c(=O)n4C)cn1` [Compound 184, 1-(1-glycylpiperidin-4-yl)-8-(2-methoxypyrimidin-5-yl)-3-methyl-1,3-dihydro-2H-imidazo[4,5-c][1,5]naphthyridin-2-one] are 0.184 µM, 13.3 nM and 3.93 nM.
Turning to `Cn1c(=O)n(C2CCN(CC(F)(F)F)CC2)c2c3nc(-c4cnc5ccccc5c4)ccc3ncc21` [Compound 141, 3-methyl-8-quinolin-3-yl-1-[1-(2,2,2-trifluoroethyl)piperidin-4-yl]-1,3-dihydro-2H-imidazo[4,5-c][1,5]naphthyridin-2-one], the IC50 in test [1] (setting [4]) came out at 0.0148 µM. This molecule also gave a Ki in test [2] of 9.56 nM. Also, in test [3], the “PI3Ka Ki” value was 20.5 nM.
Take `Cn1cc(-c2ccc3ncc4c(c3n2)n([C@H]2CC[C@H](O)CC2)c(=O)n4C)cn1` [Compound 170, 1-(trans-4-hydroxycyclohexyl)-3-methyl-8-(1-methyl-1H-pyrazo1-4-yl)-1,3-dihydro-2H-imidazo[4,5-c][1,5]naphthyridin-2-one]: the IC50 in test [1] (setting [4]) was found to be 0.107 µM. In test [2], this molecule showed a Ki of 7.18 nM. The “PI3Ka Ki” value in test [3] was 7.44 nM.
In the same order, the values of `Cn1c(=O)n([C@H]2CC[C@H](O)CC2)c2c3nc(-c4cnc5ccccc5c4)ccc3ncc21` [Compound 146, 1-(trans-4-hydroxycyclohexyl)-3-methyl-8-quinolin-3-yl-1,3-dihydro-2H-imidazo[4,5-c][1,5]naphthyridin-2-one] are 0.00521 µM, 3.8 nM and 1.2 nM.
In the case of `CCOC(=O)N1CCC(n2c(=O)n(C)c3cnc4ccc(-c5cnc6ccccc6c5)nc4c32)CC1` [Compound 127, ethyl 4-(3-methyl-2-oxo-8-quinolin-3-yl-2,3-dihydro-1H-imidazo[4,5-c][1,5]naphthyridin-1-yl)piperidine-1-carboxylate], the IC50 in test [1] (setting [5]) was determined as 0.0204 µM. The molecule also registered a Ki in test [2] of 4.3 nM. Moreover, in test [3], the “PI3Ka Ki” value is 1.38 nM.
As for `COc1ccc(-c2ccc3ncc4c(c3n2)n(C2CCN(C(C)C)CC2)c(=O)n4C)cn1` [Compound 137, 1-(1-isopropylpiperidin-4-yl)-8-(6-methoxypyridin-3-yl)-3-methyl-1,3-dihydro-2H-imidazo[4,5-c][1,5]naphthyridin-2-one], the IC50 in test [1] (setting [4]) stood at 0.0551 µM. In test [2], this molecule registered a Ki of 17.8 nM. In addition, in test [3], the “PI3Ka Ki” value is 3.48 nM.
Regarding `Cn1cc(-c2ccc3ncc4[nH]c(=O)n(-c5ccc(C(C)(C)C#N)cc5)c4c3n2)cn1` [Compound 113, 2-Methyl-2-{4-[8-(1-methyl-1H-pyrazol-4-yl)-2-oxo-2,3-dihydro-1,3,5,9-tetraaza-cyclopenta[a]naphthalen-1-yl]-phenyl}-propionitrile], the IC50 in test [1] (setting [5]) is 0.0973 µM. For the same molecule, the affinity in test [2], expressed as Ki, was 15.5 nM. The “PI3Ka Ki” value in test [3] is 59.2 nM.
For `Cc1ccc(-c2ccc3ncc4c(c3n2)n(C2CCN(C(=O)CN(C)C)CC2)c(=O)n4C)cn1` [Compound 178, 1-[1-(N,N-dimethylglycyl)piperidin-4-yl]-3-methyl-8-(6-methylpyridin-3-yl)-1,3-dihydro-2H-imidazo[4,5-c][1,5]naphthyridin-2-one], in test [1] (setting [4]), the IC50 worked out at 0.0427 µM. For the same molecule, in test [2], the Ki is 1.18 nM. Further, the “PI3Ka Ki” value in test [3] is 4.09 nM.
The corresponding values for `CC(=O)N1CCC(n2c(=O)n(C)c3cnc4ccc(-c5ccnc6[nH]ncc56)nc4c32)CC1` [Compound 251, 1-(1-acetylpiperidin-4-yl)-3-methyl-8-(1H-pyrazolo[3,4-b]pyridin-4-yl)-1,3-dihydro-2H-imidazo[4,5-c][1,5]naphthyridin-2-one] are 0.14 µM, 4.63 nM and 0.811 nM.
Take `C[C@@H](CO)n1c(=O)n(C)c2cnc3ccc(-c4cnn(C)c4)nc3c21` [Compound 239, 1-[(1S)-2-hydroxy-1-methylethyl]-3-methyl-8-(1-methyl-1H-pyrazol-4-yl)-1,3-dihydro-2H-imidazo[4,5-c][1,5]naphthyridin-2-one]: the IC50 in test [1] (setting [4]) turned out to be 5.04 µM. The affinity in test [2] corresponds to a Ki of 311 nM. For the same molecule, in test [3], the “PI3Ka Ki” value is 102 nM.
Take `C[C@H](CO)n1c(=O)n(C)c2cnc3ccc(-c4cnc5[nH]ncc5c4)nc3c21` [Compound 238, 1-[(1R)-2-hydroxy-1-methylethyl]-3-methyl-8-(1H-pyrazolo[3,4-b]pyridin-5-yl)-1,3-dihydro-2H-imidazo[4,5-c][1,5]naphthyridin-2-one]: the IC50 in test [1] (setting [4]) was 0.0838 µM. In test [2], this molecule registered a Ki of 4.44 nM. Moreover, the “PI3Ka Ki” value in test [3] was 0.438 nM.
